Numbers after ± are expanded uncertainties.
Experiments:
[1] = refractive index (Na D-line) (dimensionless); details: 101 kPa, Liquid, Standard Abbe refractometry
[2] = 101 kPa, Liquid, Vibrating tube method
[3] = wn = mass fraction of the nth substance listed; details: 101 kPa, Liquid, Vibrating tube method, w2 = 0
[4] = refractive index (Na D-line) (dimensionless); wn = mass fraction of the nth substance listed; details: 101 kPa, Liquid, Standard Abbe refractometry, w2 = 0

CN(CCO)CCO [N-methyldiethanolamine]
Details	mass density, [2] [kg/m3]	refractive index, [1]
293.15 K	1040.31 ± 8.4	1.46942 ± 0.0042
298.15 K	1036.42 ± 8.3	1.46732 ± 0.0042
303.15 K	1032.55 ± 8.3	1.46498 ± 0.0042
308.15 K	1028.7 ± 8.3	1.46285 ± 0.0042
313.15 K	1025.14 ± 8.2	1.46099 ± 0.0042
318.15 K	1021.34 ± 8.2	1.45879 ± 0.0042
323.15 K	1017.55 ± 8.2	1.4568 ± 0.0042
328.15 K	1013.89 ± 8.2	1.45461 ± 0.0042
333.15 K	1010.07 ± 8.1	1.45252 ± 0.0042
338.15 K	1006.37 ± 8.1	1.45042 ± 0.0042
343.15 K	1002.33 ± 8.1	1.44855 ± 0.0042
348.15 K	998.62 ± 8	–
353.15 K	995.05 ± 8	–

CN(CCO)CCO [N-methyldiethanolamine] + C[P+](c1ccccc1)(c1ccccc1)c1ccccc1.[Br-]
Details	mass density, [3] [kg/m3]	refractive index, [4]
293.15 K	1040.31 ± 8.4	1.46942 ± 0.0042
298.15 K	1036.42 ± 8.3	1.46732 ± 0.0042
303.15 K	1032.55 ± 8.3	1.46498 ± 0.0042
308.15 K	1028.7 ± 8.3	1.46285 ± 0.0042
313.15 K	1025.14 ± 8.2	1.46099 ± 0.0042
318.15 K	1021.34 ± 8.2	1.45879 ± 0.0042
323.15 K	1017.55 ± 8.2	1.4568 ± 0.0042
328.15 K	1013.89 ± 8.2	1.45461 ± 0.0042
333.15 K	1010.07 ± 8.1	1.45252 ± 0.0042
338.15 K	1006.37 ± 8.1	1.45042 ± 0.0042
343.15 K	1002.33 ± 8.1	1.44855 ± 0.0042
348.15 K	998.62 ± 8	–
353.15 K	995.05 ± 8	–

From the NIST ThermoML archive (doi:10.1016/j.jct.2018.12.014)
